According to patent US20250129430A1, “HIGH ATP-AFFINITY PROTEIN AS THERAPEUTIC TARGET FOR INTRACTABLE CANCER MOLECULAR SUBTYPES AND INHIBITOR THEREOF” (VeraVerse Co., Ltd., priority 2021, published 2025):

Columns and labels:
Test in all cases: Cell viability drug screen, 12-point dose-response AUC
Type in all cases: cell-based, human
[1] = test system: SNU601; conditions: SNU601 cells, 72 hours
Summary of the method: (§1)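 Luminescent viability readings, taken 15 min after reagent addition at room temperature, were normalized to the 0.5% DMSO control to build 12-point dose-response curves. Trapezoidal integration gave the AUC. Cells had been plated at 5×10^3 per well and then exposed to half-log dilutions for 72 h.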

[2] = test system: OCUM1; conditions: OCUM1 cells, 72 hours
Summary of the method: as §1

[3] = test system: NCC24; conditions: NCC24 cells, 72 hours
Summary of the method: as §1

[4] = test system: SNU16; conditions: SNU16 cells, 72 hours
Summary of the method: as §1

[5] = test system: MKN1; conditions: MKN1 cells, 72 hours
Summary of the method: as §1

[6] = test system: NCI_N87; conditions: NCI_N87 cells, 72 hours
Summary of the method: as §1

[7] = test system: NCC20; conditions: NCC20 cells, 72 hours
Summary of the method: as §1

[8] = test system: MKN28; conditions: MKN28 cells, 72 hours
Summary of the method: as §1

[9] = test system: MKN45; conditions: 72 hours; for Average Area Under the Viability Curve (AUC), AUC norm value: MKN45 cells (non-SEM subtype)
Summary of the method: (§2)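 Each cell line receives a twelve-point half-log titration of drug beginning 24 h after plating 5×10^3 cells per well. Following 72 h culture at 37 °C, luminescent signal is recorded and expressed versus vehicle. AUC is derived by the trapezoidal method.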

[10] = test system: SK4; conditions: 72 hours; for Average Area Under the Viability Curve (AUC), AUC norm value: SK4 cells (SEM subtype)
Summary of the method: as §1

[11] = test system: SNU1; conditions: SNU1 cells, 72 hours
Summary of the method: as §1

[12] = test system: SNU216; conditions: 72 hours; for Average Area Under the Viability Curve (AUC), AUC norm value: SNU216 cells (non-SEM subtype)
Summary of the method: as §2

[13] = test system: MKN74; conditions: MKN74 cells, 72 hours
Summary of the method: as §2

[14] = test system: SNU638; conditions: SNU638 cells, 72 hours
Summary of the method: as §1

[15] = test system: SNU668; conditions: 72 hours; for Average Area Under the Viability Curve (AUC), AUC norm value: SNU668 cells (SEM subtype)
Summary of the method: as §1

[16] = test system: AGS; conditions: 72 hours; for Average Area Under the Viability Curve (AUC), AUC norm value: AGS cells (non-SEM subtype)
Summary of the method: as §2

[17] = test system: NCC59; conditions: NCC59 cells, 72 hours
Summary of the method: as §1

[18] = test system: YCC11; conditions: 72 hours; for Average Area Under the Viability Curve (AUC), AUC norm value: YCC11 cells (SEM subtype)
Summary of the method: as §1

[19] = test system: KATO3; conditions: KATO3 cells, 72 hours
Summary of the method: as §1

[20] = test system: YCC3; conditions: YCC3 cells, 72 hours
Summary of the method: as §1

[21] = test system: SNU484; conditions: 72 hours; for Average Area Under the Viability Curve (AUC), AUC norm value: SNU484 cells (SEM subtype)
Summary of the method: as §1

[22] = test system: SNU1967; conditions: SNU1967 cells, 72 hours
Summary of the method: as §1

[23] = test system: SNU620; conditions: SNU620 cells, 72 hours
Summary of the method: as §1

[24] = test system: SNU1750; conditions: 72 hours; for Average Area Under the Viability Curve (AUC), AUC norm value: SNU1750 cells (SEM subtype)
Summary of the method: as §1

[25] = test system: YCC2; conditions: YCC2 cells, 72 hours
Summary of the method: as §1

[26] = test system: SNU719; conditions: SNU719 cells, 72 hours
Summary of the method: as §2

[27] = test system: NCC19; conditions: NCC19 cells, 72 hours
Summary of the method: as §1

[28] = test system: Hs746T; conditions: 72 hours; for Average Area Under the Viability Curve (AUC), AUC norm value: Hs746T cells (SEM subtype)
Summary of the method: as §1

[29] = test system: FU97; set-up: Average Area Under the Viability Curve (AUC), AUC norm value: scale not given here; conditions: FU97 cells, 72 hours
Summary of the method: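 Trapezoidal AUC of a 12-point, DMSO-normalized dose-response curve. Luminescent viability was measured after 72 h of exposure at 37° C to half-log serial dilutions (0.5% DMSO control), dosed 24 h after plating FU97 cells at 5×10^3 per well.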

`OC1(c2ccc(Cl)c(C(F)(F)F)c2)CCN(CCCC(c2ccc(F)cc2)c2ccc(F)cc2)CC1` [Penfluridol] was tested, and the “Average Area Under the Viability Curve (AUC), AUC norm value” (shortened to “Average Area Under the Viability Curve”) [1] was 0.6748, the “Average Area Under the Viability Curve” value [2] was 0.2066 and the “Average Area Under the Viability Curve” value [3] was 0.5023. For the same molecule, the “Average Area Under the Viability Curve” value [4] was −1.2587, the “Average Area Under the Viability Curve” value [5] was −0.01646 and the “Average Area Under the Viability Curve” value [6] was 0.3682. The “Average Area Under the Viability Curve” value [7] was −0.8471, the “Average Area Under the Viability Curve” value [8] was −0.6097 and the “Average Area Under the Viability Curve” value [9] was 0.9981. For the same molecule, the “Average Area Under the Viability Curve” value [10] was −0.5075, the “Average Area Under the Viability Curve” value [11] was 0.8479 and the “Average Area Under the Viability Curve” value [12] was −0.5069. For the same molecule, the “Average Area Under the Viability Curve” value [13] was −1.133, the “Average Area Under the Viability Curve” value [14] was −1.32 and the “Average Area Under the Viability Curve” value [15] was 0.00275. The “Average Area Under the Viability Curve” value [16] was −0.6917, the “Average Area Under the Viability Curve” value [17] was 0.3439 and the “Average Area Under the Viability Curve” value [18] was −0.5164. For the same molecule, the “Average Area Under the Viability Curve” value [19] was 0, the “Average Area Under the Viability Curve” value [20] was 0.4477 and the “Average Area Under the Viability Curve” value [21] was −0.3957. For the same molecule, the “Average Area Under the Viability Curve” value [22] was −0.08879, the “Average Area Under the Viability Curve” value [23] was 0.04726 and the “Average Area Under the Viability Curve” value [24] was −0.03209. For the same molecule, the “Average Area Under the Viability Curve” value [25] was −0.07658, the “Average Area Under the Viability Curve” value [26] was 0.3303 and the “Average Area Under the Viability Curve” value [27] was 0.6239. For the same molecule, the “Average Area Under the Viability Curve” value [28] was 0.2822 and the “Average Area Under the Viability Curve” value [29] was 0.09295.
For `CC[C@]1(O)C[C@H]2CN(CCc3c([nH]c4ccccc34)[C@@](C(=O)OC)(c3cc4c(cc3OC)N(C=O)[C@H]3[C@@](O)(C(=O)OC)[C@H](OC(C)=O)[C@]5(CC)C=CCN6CC[C@]43[C@@H]65)C2)C1` [Vincristine], the “Average Area Under the Viability Curve” value [1] was 0.9381, the “Average Area Under the Viability Curve” value [2] was 0.6548 and the “Average Area Under the Viability Curve” value [3] was −3.156. For the same molecule, the “Average Area Under the Viability Curve” value [4] was −1.522, the “Average Area Under the Viability Curve” value [5] was −1.53 and the “Average Area Under the Viability Curve” value [6] was 1.615. For the same molecule, the “Average Area Under the Viability Curve” value [7] was −1.434, the “Average Area Under the Viability Curve” value [8] was −0.493 and the “Average Area Under the Viability Curve” value [9] was 2.226. For the same molecule, the “Average Area Under the Viability Curve” value [10] was −1.283, the “Average Area Under the Viability Curve” value [11] was −0.5253 and the “Average Area Under the Viability Curve” value [12] was 1.755. For the same molecule, the “Average Area Under the Viability Curve” value [13] was 0.209, the “Average Area Under the Viability Curve” value [14] was 0.1348 and the “Average Area Under the Viability Curve” value [15] was −1.315. For the same molecule, the “Average Area Under the Viability Curve” value [16] was −1.75, the “Average Area Under the Viability Curve” value [17] was 3.847 and the “Average Area Under the Viability Curve” value [18] was −1.42. For the same molecule, the “Average Area Under the Viability Curve” value [19] was 4.8981, the “Average Area Under the Viability Curve” value [20] was 4.6576 and the “Average Area Under the Viability Curve” value [21] was −1.965. For the same molecule, the “Average Area Under the Viability Curve” value [22] was −1.3653, the “Average Area Under the Viability Curve” value [23] was −0.3792 and the “Average Area Under the Viability Curve” value [24] was 0. The “Average Area Under the Viability Curve” value [25] was 2.298, the “Average Area Under the Viability Curve” value [26] was 5.036 and the “Average Area Under the Viability Curve” value [27] was 5.039. For the same molecule, the “Average Area Under the Viability Curve” value [28] was 1.044 and the “Average Area Under the Viability Curve” value [29] was −1.115.
For `CC(=O)O[C@H]1C(=O)[C@@]2(C)[C@H]([C@H](OC(=O)c3ccccc3)[C@]3(O)C[C@H](OC(=O)[C@H](O)[C@@H](NC(=O)c4ccccc4)c4ccccc4)C(C)=C1C3(C)C)[C@]1(OC(C)=O)CO[C@@H]1C[C@@H]2O` [Paclitaxel (Taxol), Paclitaxel], the “area under the viability curve (AUC), normalized” value (“area … normalized” for short) ([1]; 12-point dose-response) was −1.106, the “area … normalized” value ([2]; 12-point dose-response) was 2.909 and the “area … normalized” value ([3]; 12-point dose-response) was −1.616. For the same molecule, the “area … normalized” value ([4]; 12-point dose-response) was −0.5105, the “area … normalized” value ([5]; 12-point dose-response) was −1.258 and the “area … normalized” value ([6]; 12-point dose-response) was −1.013. The “area … normalized” value ([7]; 12-point dose-response) was 0, the “area … normalized” value ([8]; 12-point dose-response) was −0.2731 and the “area … normalized” value ([9]; MKN45 cells, 12-point dose-response) was 1.473. For the same molecule, the “area … normalized” value ([10]; SK4 cells, 12-point dose-response) was −0.872, the “area … normalized” value ([11]; 12-point dose-response) was −1.778 and the “area … normalized” value ([12]; SNU216 cells, 12-point dose-response) was 2.148. For the same molecule, the “area … normalized” value ([13]; 12-point dose-response) was 0.186, the “area … normalized” value ([14]; 12-point dose-response) was −0.3898 and the “area … normalized” value ([15]; SNU668 cells, 12-point dose-response) was −0.02282. The “area … normalized” value ([16]; AGS cells, 12-point dose-response) was −1.831, the “area … normalized” value ([17]; 12-point dose-response) was 3.637 and the “area … normalized” value ([18]; YCC11 cells, 12-point dose-response) was −0.8302. For the same molecule, the “area … normalized” value ([19]; 12-point dose-response) was 5.3572, the “area … normalized” value ([20]; 12-point dose-response) was 3.81 and the “area … normalized” value ([21]; SNU484 cells, 12-point dose-response) was −0.3604. For the same molecule, the “area … normalized” value ([22]; 12-point dose-response) was 0.05016, the “area … normalized” value ([23]; 12-point dose-response) was −1.998 and the “area … normalized” value ([24]; SNU1750 cells, 12-point dose-response) was 0.811. For the same molecule, the “area … normalized” value ([25]; 12-point dose-response) was 0.5673, the “area … normalized” value ([26]; 12-point dose-response) was 4.877 and the “area … normalized” value ([27]; 12-point dose-response) was 1.902. The “area … normalized” value ([28]; Hs746T cells, 12-point dose-response) was 0.7342 and the “area … normalized” value ([29]; 12-point dose-response) was 0.989.
